Reference: the NIST ThermoML archive (doi:10.1016/j.jct.2005.08.002)
Numbers after ± are expanded uncertainties.

Tests used:
[1] = 101 kPa, Liquid; for viscosity: Capillary tube (Ostwald / Ubbelohde) method; for speed of sound: Sing-around technique in a fixed-path interferometer; for mass density: Vibrating tube method
[2] = xn = mol fraction of the nth substance listed; settings: 101 kPa, Liquid, x2 = 0; for viscosity: Capillary tube (Ostwald / Ubbelohde) method; for speed of sound: Sing-around technique in a fixed-path interferometer; for mass density: Vibrating tube method

| Compound | viscosity ([1]; 293.15 K) [mPa·s] | speed of sound ([1]; 293.15 K) [m/s] | mass density ([1]; 293.15 K) [kg/m3] | viscosity ([1]; 298.15 K) [mPa·s] | speed of sound ([1]; 298.15 K) [m/s] | mass density ([1]; 298.15 K) [kg/m3] | viscosity ([1]; 303.15 K) [mPa·s] | speed of sound ([1]; 303.15 K) [m/s] | mass density ([1]; 303.15 K) [kg/m3] | viscosity ([2]; 293.15 K) [mPa·s] | speed of sound ([2]; 293.15 K) [m/s] | mass density ([2]; 293.15 K) [kg/m3] | viscosity ([2]; 298.15 K) [mPa·s] | speed of sound ([2]; 298.15 K) [m/s] | mass density ([2]; 298.15 K) [kg/m3] | viscosity ([2]; 303.15 K) [mPa·s] | speed of sound ([2]; 303.15 K) [m/s] | mass density ([2]; 303.15 K) [kg/m3] |
| --- | --- | --- | --- | --- | --- | --- | --- | --- | --- | --- | --- | --- | --- | --- | --- | --- | --- | --- |
| CCC(C)=O [butanone] | 0.398 ± 0.009 | 1213 ± 2 | 804.95 ± 0.23 | 0.378 ± 0.008 | 1192 ± 2 | 799.74 ± 0.23 | 0.36 ± 0.008 | 1171 ± 2 | 794.48 ± 0.23 | – | – | – | – | – | – | – | – | – |
| CCCC(C)=O [pentan-2-one] + CC1CCCC1 | – | – | – | – | – | – | – | – | – | 0.496 ± 0.011 | 1233 ± 2 | 806.26 ± 0.23 | 0.469 ± 0.01 | 1213 ± 2 | 801.42 ± 0.23 | 0.444 ± 0.009 | 1192 ± 2 | 796.58 ± 0.23 |
| CCC(C)=O [butanone] + CC1CCCC1 | – | – | – | – | – | – | – | – | – | 0.398 ± 0.009 | 1213 ± 2 | 804.95 ± 0.23 | 0.378 ± 0.008 | 1192 ± 2 | 799.74 ± 0.23 | 0.36 ± 0.008 | 1171 ± 2 | 794.48 ± 0.23 |
| CCCC(C)=O [pentan-2-one] | 0.496 ± 0.011 | 1233 ± 2 | 806.26 ± 0.23 | 0.469 ± 0.01 | 1213 ± 2 | 801.42 ± 0.23 | 0.444 ± 0.009 | 1192 ± 2 | 796.58 ± 0.23 | – | – | – | – | – | – | – | – | – |
| CC(C)=O [acetone] | 0.32 ± 0.007 | 1185 ± 2 | 791.11 ± 0.15 | 0.306 ± 0.007 | 1162 ± 2 | 785.41 ± 0.15 | 0.292 ± 0.006 | 1140 ± 2 | 779.66 ± 0.15 | – | – | – | – | – | – | – | – | – |
| CC(C)=O [acetone] + CC1CCCC1 | – | – | – | – | – | – | – | – | – | 0.32 ± 0.007 | 1185 ± 2 | 791.11 ± 0.15 | 0.306 ± 0.007 | 1162 ± 2 | 785.41 ± 0.15 | 0.292 ± 0.006 | 1140 ± 2 | 779.66 ± 0.15 |
| CC1CCCC1 [methylcyclopentane] | 0.504 ± 0.016 | 1197 ± 5 | 746.64 ± 2 | 0.476 ± 0.016 | 1174 ± 5 | 741.94 ± 2 | 0.45 ± 0.015 | 1150 ± 5 | 737.21 ± 1.9 | – | – | – | – | – | – | – | – | – |
